Test results reported in patent US20050266575A1 (priority 2004, published 2005).
pEC50, pKi: −log10 of the molar value. No end group written: not given here.

What was measured:
ORL1 [1] = biological target: T1, ORL1 (Homo sapiens, UniProt P41146); assay: Calcium flux (FLIPR) in carbachol-sensitized HEK-293 cells expressing ORL-1 receptor; type: cell-based; design: expressed in transfected cells; host or cells: HEK-293 cells expressing ORL-1 receptor; conditions: for pEC50: HEK-293 cells expressing ORL-1, pretreated with 100 μM carbachol, read-out: EC50 (calcium release); for EC50(x)/EC50(WT): ratio of variant EC50 to nociceptin EC50
Experimental: HEK-293 cells expressing ORL-1 receptor were plated at a density of 50,000 cells/well in a total volume of 50 ↑L onto 96-well plates. Two days later cells were prepared for assay using the FLIPR Calcium Assay Kit (Molecular Devices) according to manufacturer's directions, with the exception that the volume of dye mix added to each well was 50 μL instead of 100 μL. Cells were then treated with 100 μM carbachol in 100 μL. […] Data points were collected at one per second for 120 seconds, then one every three seconds for 30 seconds for a total collection time of 150 seconds after both the first and second additions.
This produced a “percent of carbachol response” for each dose. The experiment was repeated 6 times and the high and low values for each concentration were dropped. The data were used to generate EC50 curves using GraphPad Prizm v.3.0 software.
Target sequence in this assay (P41146 whole entry): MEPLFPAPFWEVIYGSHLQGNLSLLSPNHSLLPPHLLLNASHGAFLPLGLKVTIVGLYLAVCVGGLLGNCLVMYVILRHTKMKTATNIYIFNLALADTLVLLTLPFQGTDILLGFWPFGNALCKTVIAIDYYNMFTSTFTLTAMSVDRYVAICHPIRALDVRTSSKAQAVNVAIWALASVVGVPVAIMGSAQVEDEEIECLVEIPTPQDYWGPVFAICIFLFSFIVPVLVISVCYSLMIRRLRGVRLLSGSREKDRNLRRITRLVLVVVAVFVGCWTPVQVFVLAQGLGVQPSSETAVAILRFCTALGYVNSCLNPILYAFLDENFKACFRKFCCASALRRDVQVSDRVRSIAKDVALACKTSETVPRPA

[2] = biological target: T2, human nociceptin receptor (ORL-1) (Homo sapiens, UniProt P41146); assay: Nociceptin receptor binding assay: binding of 125I-Tyr14-nociceptin to ORL-1 on HEK-293 cell membranes; conditions: for pKi: competition with 0.5 nM 125I-Tyr14-nociceptin, HEK-293 cell membranes, 3 experiments in duplicate; for Ki(x)/Ki(WT): ratio of variant Ki to nociceptin Ki
T2 construct: expressed in transfected cells
T2 sequence (P41146 whole entry): as above
Experimental: Binding of peptides to the ORL-1 Receptor. […] ORL-1 membranes were diluted in binding buffer such that 25 μL containing 1 microgram (μg) of membrane was added to each well of a standard 96-well microtiter in binding buffer. […] Plates were incubated for two hours at room temperature and the reactions were filtered over GF/C Filterplates (Perkin Elmer-NEN), prewetted in 0.03% polyethleneimine, in a Filtermate 196 apparatus (Packard). Plates were washed six times with binding buffer in the filtration apparatus, then dried under vacuum for 1-2 hours. Twenty five microliters (25 μL) Microscint 20 (Packard) per well was added to solubilize bound radioactivity. The plates were then sealed and counted on a Packard Top Count to determine radioactivity bound to the membranes. Curves were fitted and IC50 values determined using Graphpad Prizm software (v3.0).

ORL1 [3] = biological target: T1, ORL1; conditions: cited from earlier work
Target sequence in this assay (P41146 whole entry, species assumed): as the sequence (P41146 whole entry) above

| Compound | pEC50 (ORL1 [1]) | EC50(x)/EC50(WT) (ORL1 [1]) | pKi [2] | Ki(x)/Ki(WT) [2] | fold lower affinity for ORL1 than nociceptin (ORL1 [3]) [fold] |
| --- | --- | --- | --- | --- | --- |
| CCCC[C@H](NC(=O)CNC(=O)[C@@H](NC(=O)[C@H](Cc1ccccc1)NC(=O)CNC(=O)CNC(=O)[C@@H](N)Cc1ccccc1)[C@@H](C)O)C(=O)N[C@@H](CCCNC(=N)N)C(=O)N[C@@H](CCCCN)C(=O)N[C@@H](CO)C(=O)N[C@@H](C)C(=O)N[C@@H](CCCNC(=N)N)C(=O)N[C@@H](CCCCN)C(=O)N[C@@H](CC(C)C)C(=O)N[C@@H](C)C(=O)N[C@@H](CC(N)=O)C(=O)N[C@@H](CCC(N)=O)C(=O)O [Peptide A7nleu] | 7.54 | 12 | 9.30 | 0.7 | – |
| CCCC[C@H](NC(=O)[C@H](CO)NC(=O)[C@H](CCCCN)NC(=O)[C@H](CCCNC(=N)N)NC(=O)[C@H](C)NC(=O)CNC(=O)[C@@H](NC(=O)[C@H](Cc1ccccc1)NC(=O)CNC(=O)CNC(=O)[C@@H](N)Cc1ccccc1)[C@@H](C)O)C(=O)N[C@@H](CCCNC(=N)N)C(=O)N[C@@H](CCCCN)C(=O)N[C@@H](CC(C)C)C(=O)N[C@@H](C)C(=O)N[C@@H](CC(N)=O)C(=O)N[C@@H](CCC(N)=O)C(=O)O [Peptide A11nleu] | 8.38 | 1.8 | 8.72 | 2.6 | – |
| AGGFTGARKSARKLANQ [Peptide F1A] | 5.84 | 601 | 7.04 | 127 | – |
| FAGFTGARKSARKLANQ [Peptide G2A] | 5.86 | 581 | 6.72 | 265 | – |
| FGAFTGARKSARKLANQ [Peptide G3A] | 7.89 | 5.5 | 8.80 | 2.2 | – |
| FGGATGARKSARKLANQ [Peptide F4A] | 5.41 | 1617 | 6.73 | 262 | – |
| FGGFAGARKSARKLANQ [Peptide T5A] | 6.80 | 66 | 8.19 | 8.9 | – |
| FGGFLGARKSARKLANQ [Peptide T5L] | 7.85 | 5.7 | 8.66 | 3.1 | – |
| FGGFSGARKSARKLANQ [Peptide T5S] | 7.57 | 11 | 8.85 | 2.0 | – |
| FGGFTAARKSARKLANQ [Peptide G6A] | 7.41 | 16 | 8.82 | 2.1 | – |
| FGGFTGAAKSARKLANQ [Peptide R8A] | 7.16 | 29 | 7.30 | 69 | – |
| FGGFTGAKKSAKKLANQ [R8K/R12K] | 7.27 | 22 | 8.41 | 5.4 | – |
| FGGFTGAKKSARKLANQ [Peptide R8K] | 7.19 | 27 | 7.49 | 45 | – |
| FGGFTGARASARKLANQ [Peptide K9A] | 8.55 | 1.2 | 8.82 | 2.1 | – |
| FGGFTGARKAARKLANQ [Peptide S10A] | 7.38 | 18 | 9.10 | 1.2 | – |
| FGGFTGARKSAAKLANQ [Peptide R12A] | 8.89 | 0.5 | 8.55 | 3.9 | – |
| FGGFTGARKSAKKLANQ [Peptide R12K] | 8.62 | 1.0 | 9.10 | 1.1 | – |
| FGGFTGARKSARALANQ [Peptide K13A] | 8.96 | 0.5 | 8.82 | 2.1 | – |
| FGGFTGARKSARKAANQ [Peptide L14A] | 8.15 | 2.9 | 9.70 | 0.3 | – |
| FGGFTGARKSARKLAAQ [Peptide N16A] | 8.77 | 0.7 | 9.52 | 0.4 | – |
| FGGFTGARKSARKLANA [Peptide Q17A] | 7.92 | 4.8 | 9.10 | 1.1 | – |
| FGGFTGARKSARKLGNQ [Peptide A15G] | 8.72 | 0.8 | 9.70 | 0.3 | – |
| FGGFTGARKSGRKLANQ [Peptide A11G] | 7.96 | 4.8 | 8.49 | 4.4 | – |
| FGGFTGARKSLRKLANQ [Peptide A11L] | 8.08 | 3.5 | 9.05 | 1.2 | – |
| FGGFTGARKSSRKLANQ [Peptide A11S] | 8.92 | 0.5 | 8.92 | 1.7 | – |
| FGGFTGGRKSARKLANQ [Peptide A7G] | 7.74 | 7.4 | 8.11 | 11 | – |
| FGGFTGLRKSARKLANQ [Peptide A7L] | 7.89 | 5.2 | 9.10 | 1.1 | – |
| FGGFTGSRKSARKLANQ [Peptide A7S] | 8.25 | 2.3 | 8.82 | 2.1 | – |
| Y G G F L R R I R P K L K W D N Q [Dynorphin A] | – | – | – | – | 100 |
